Measured values from patent publication US20260097045A1, “ANTIMICROBIAL COMBINATIONS” (Helperby Therapeutics Limited, priority 2022, published 2026).
Residues, ends and D or L forms follow the SMILES beside them.

Experiments:
Assay type in all cases: cell-based
[1] = test system: Methicillin-resistant Staphylococcus aureus (MRSA); test: chequerboard assay (percentage of positive control, MIC, FIC) against MRSA; settings: for MIC: Staphylococcus aureus, agent alone, MRSA isolate, read-out: MIC Monotherapy (X)
Excerpt: (§1) FICI or fractional inhibitory concentration index is the sum of the FICs of each antimicrobial when used in combination. The FIC or fractional inhibitory concentration of an antimicrobial in a combination, is the MIC of the antimicrobial in the combination divided by the MIC of the same antimicrobial when used alone. Minimum inhibitory concentrations are defined in the art as the lowest concentration of an antimicrobial that will inhibit the visible growth of a microorganism after overnight incubation.
(§2) In the method for a 3-mer combination, one antibiotic was “fixed” as part of a backbone whilst the two other antibiotics were varied over a doubling concentration scale beginning at the MIC (×1) for the effective dose in monotherapy against the organism being tested. The ΣFIC was then calculated as shown below. In the method for a 4-mer combination, two antibiotics were “fixed” as part of a backbone whilst the two other antibiotics were varied over a doubling concentration scale beginning at the MIC (×1) for the effective dose in monotherapy against the organism being tested.
(§3) The ΣFIC was divided by “0.5/n” where n=number of antimicrobials in the combination to provide FIC. The inventors opted for this expression because it more closely aligns with the 2-mer synergy levels. The same FIC scale as used for 2-mers was applied: synergy is observed when FIC is <0.5. An “Additive” effect is observed when FIC is 0.5 to <1. Indifference is observed when FIC is 1 to <2. Antagonism is observed when FIC is 2 to 4.
(§4) The antimicrobial agents were sourced from commercially available sources. They were prepared by being weighed and dissolved in water, PBS, DMSO or acidified water to a final concentration from 1-10 mg/mL. Antimicrobial solutions were diluted to 10× highest concentration used in the experiment and subsequently diluted 2× over a series not exceeding 11 serial dilutions. These left the operator with a maximum of 12 different, descending concentrations of the chosen antimicrobials.
(§5) The bacteria were obtained from Ninewells Hospital and Medical School in Dundee, Scotland. They were obtained as patient strains and characterised by Vitek 2 screening. To prepare for the Examples below, the bacteria were grown overnight in Mueller Hinton Cation adjusted broth or until confluent in media with or without supplements. The bacteria were measured for OD600 and readings of <0.25 were returned to the incubator.
(§6) All data herein was produced using the same chequerboard assay.
(§7) 20 μL of antibiotic A (backbone), at a single dilution, was pipetted into all wells of a 96-well plate to be used.
(§8) 20 μL of the lowest concentration of antibiotic B (first variable) was pipetted into column 1 of the 96-well plate. The second concentration (2-fold more concentrate) was pipetted into column 2. This process was repeated until all concentrations of antibiotic B to be used were complete.
(§9) 20 μL of the lowest concentration of antibiotic C (second variable) were pipetted into row A of the 96-well plate. The second concentration (2-fold more concentrate) was pipetted into row B. This process was repeated until all concentrations of antibiotic C to be used were complete.
(§10) 120 μL of sterile media (BHI/MHB2) was added.
(§11) 20 ul of prepared bacterial culture was added.
(§12) Plates were sealed with lids and left to incubate for 16 hours, overnight.
(§13) Plates were read at OD600 in a 96-well plate reader. These are the values reported in the chequerboards below.
(§14) As a tri-mer combination, two antibiotic concentrations were varied while one remained constant, the latter is the “backbone”. For the 4-mer combination, two antibiotic concentrations were varied while two remained constant, the latter is the “backbone”. This method is explained above along with the calculation of the FICI and the indicative value for synergy, indifference and antagonism.
The method was identical to Comparative Example 1. The isolate was Methicillin-resistant Staphylococcus aureus (MRSA).

P. aeruginosa = test: chequerboard assay (percentage of positive control, MIC, FIC) against P. aeruginosa; settings: for MIC: Pseudomonas aeruginosa, read-out: MIC Monotherapy (X)
Excerpt: as §1, §2, §3, §4, §5, §6, §7, §8, §9, §10, §11, §12, §13, §14
The method was identical to Comparative Example 1, except the isolate was P. aeruginosa.

A. baumannii = test: chequerboard assay (percentage of positive control, MIC, FIC) against A. baumannii; settings: for concentration up to which the isolate was resistant to the agent / MIC: A. baumannii isolate, agent alone; for MIC: Acinetobacter baumannii, read-out: MIC Monotherapy (X)
Excerpt: as §1, §2, §3, §4, §5, §6, §7, §8, §9, §10, §11, §12, §13, §14
The method was identical to Comparative Example 1. The isolate was A. baumannii.

K. pneumoniae CPE = test: chequerboard assay (OD600, FIC) against K. pneumoniae CPE; settings: agent alone
ESBL E. coli = test: chequerboard assay (OD600, MIC, FIC) against ESBL E. coli; settings: for MIC: Escherichia coli, agent alone, ESBL E. coli isolate, read-out: MIC Monotherapy (X)
Excerpt: as §1, §2, §3, §4, §5, §6, §7, §8, §9, §10, §11, §12, §13, §14

[2] = agent within ceftazidime + levofloxacin + meropenem (Example 19)
[3] = P. aeruginosa isolate, agent alone
[4] = agent alone, P. aeruginosa isolate
[5] = agent within AZT + ceftazidime + meropenem (Example 16)
[6] = agent within zidovudine + meropenem + colistin + ceftazidime (Example 13)
[7] = agent within zidovudine + meropenem + colistin + fosfomycin (Example 14)
[8] = agent within AZT + fosfomycin + colistin (Example 15)
[9] = agent within ceftazidime + levofloxacin + fosfomycin (Example 18)
[10] = agent within AZT + meropenem + colistin + fosfomycin (Example 14)
[11] = agent within AZT + colistin + ceftazidime (Example 17)
[12] = agent within AZT + ceftazidime + colistin (Example 17)
[13] = agent within ceftazidime + AZT + doxycycline (Example 3)

| SMILES | MIC [1] [µg/mL] | MIC combination therapy (Y) [1, 2] [µg/mL] | MIC (P. aeruginosa; [4]) [µg/mL] | MIC combination therapy (Y) (P. aeruginosa; [5]) [µg/mL] | MIC combination therapy (Y) (P. aeruginosa; [6]) [µg/mL] | MIC combination therapy (Y) (P. aeruginosa; [7]) [µg/mL] | MIC (A. baumannii) [µg/mL] | MIC combination therapy (Y) (A. baumannii; [8]) [µg/mL] | Ratio Y:X (A. baumannii; [8]) | MIC combination therapy (Y) [1, 9] [µg/mL] | MIC combination therapy (Y) (P. aeruginosa; [8]) [µg/mL] | Ratio Y:X (P. aeruginosa; [8]) | MIC combination therapy (Y) (A. baumannii; [11]) [µg/mL] | MIC combination therapy (Y) (P. aeruginosa; [12]) [µg/mL] | MIC combination therapy (Y) (ESBL E. coli; [13]) [µg/mL] | other results |
| --- | --- | --- | --- | --- | --- | --- | --- | --- | --- | --- | --- | --- | --- | --- | --- | --- |
| C[C@@H](O)[C@H]1C(=O)N2C(C(=O)O)=C(S[C@@H]3CN[C@H](C(=O)N(C)C)C3)[C@H](C)[C@H]12 [Meropenem] | 32 | 4 | 32 | 4 | 2 | 4 | – | – | – | – | – | – | – | – | – | concentration up to which the isolate was resistant to the agent (P. aeruginosa; [3]): 64 mg/L |
| C[C@@H]1O[C@@H]1P(=O)(O)O [Fosfomycin] | 16 | – | 256 | – | – | 4 | 256 | 32 | 0.125 | 2 | 16 | 0.125 | – | – | – | concentration up to which the isolate was resistant to the agent (A. baumannii): 128 mg/L; Ratio Y:X [1, 9]: 0.125; concentration up to which the isolate was resistant to the agent (P. aeruginosa; [3]): 64 mg/L; MIC Monotherapy (X) (P. aeruginosa; [4]): 128 µg/mL; Ratio Y:X (P. aeruginosa; [10]): 0.01562 |
| C[C@H]1COc2c(N3CCN(C)CC3)c(F)cc3c(=O)c(C(=O)O)cn1c23 [Levo, Levofloxacin] | 1 | 0.25 | – | – | – | – | – | – | – | 0.125 | – | – | – | – | – | Ratio Y:X [1, 9]: 0.125; Ratio Y:X [1, 2]: 0.25 |
| CCC(C)CCCC(=O)N[C@@H](CCN)C(=O)N[C@H](C(=O)N[C@@H](CCN)C(=O)N[C@H]1CCNC(=O)[C@H]([C@@H](C)O)NC(=O)[C@H](CCN)NC(=O)[C@H](CCN)NC(=O)[C@H](CC(C)C)NC(=O)[C@@H](CC(C)C)NC(=O)[C@H](CCN)NC1=O)[C@@H](C)O (stereo partly drawn) (HELM PEPTIDE1{[CCC(C)CCCC(=O)[*:2]].[Dab].T.[Dab].[Dab].[Dab].[dL].L.[Dab].[Dab].T}$PEPTIDE1,PEPTIDE1,5:R3-11:R2$$$V2.0) | – | – | 512 | – | 2 | 32 | 128 | 0.5 | 0.003906 | – | 0.5 | 0.000977 | 32 | 4 | – | concentration up to which the isolate was resistant to the agent (A. baumannii): 64 mg/L; Ratio Y:X (A. baumannii; [11]): 0.25; concentration at which the isolate was resistant to the agent (K. pneumoniae CPE): ≥ 8 mg/L; Ratio Y:X (P. aeruginosa; [12]): 0.007813; Ratio Y:X (P. aeruginosa; agent within AZT + meropenem + colistin + ceftazidime (Example 13)): 0.003906; Ratio Y:X (P. aeruginosa; [10]): 0.0625 |
| CC(C)(O/N=C(\C(=O)N[C@@H]1C(=O)N2C(C(=O)[O-])=C(C[n+]3ccccc3)CS[C@H]12)c1csc(N)n1)C(=O)O [Ceftazidime] | – | 1 | 512 | 0.5 | 1 | – | 512 | – | – | 16 | – | – | 32 | 1 | 4 | concentration at which the isolate was resistant to the agent (K. pneumoniae CPE): 4 mg/L |
| C[C@H]1c2cccc(O)c2C(=O)C2=C(O)[C@]3(O)C(=O)C(C(N)=O)=C(O)[C@@H](N(C)C)[C@@H]3[C@@H](O)[C@@H]21 [Doxycycline] | – | – | – | – | – | – | – | – | – | – | – | – | – | – | 0.5 | MIC (ESBL E. coli): 1 µg/mL |
| Cc1cn([C@H]2C[C@H](N=[N+]=[N-])[C@@H](CO)O2)c(=O)[nH]c1=O [Zidovudine, 1-[(2R, 4S, 5S)-4-Azido-5-(hydroxymethyl)oxolan-2-yl]-5-methylpyrimidine-2,4-dione] | – | – | 512 | 8 | 1 | 1 | 512 | 0.5 | 0.000977 | – | 0.5 | 0.000977 | 4 | 2 | 0.125 | Ratio Y:X (A. baumannii; [11]): 0.007813; MIC (ESBL E. coli): 1 µg/mL; Ratio Y:X (ESBL E. coli; [13]): 0.125; Ratio Y:X (P. aeruginosa; [12]): 0.003906; Ratio Y:X (P. aeruginosa; [5]): 0.01562; Ratio Y:X (P. aeruginosa; [6]): 0.001953; Ratio Y:X (P. aeruginosa; [7]): 0.001953 |
